The source of these data is paper PMC11233931, “Remodeling tumor‐associated macrophage for anti‐cancer effects by rational design of irreversible inhibition of mitogen‐activated protein kinase‐activated protein kinase 2” (MedComm, 2024).

The target of one series is T1, FGFR4 (Homo sapiens, UniProt P22455).
T1 construct: purchased Eurofins (Celle Lévescault)
Put plainly: Eurofins kinase selectivity profile, FGFR4. It is filed as biochemical. On the procedure: Subsequently, to ascertain whether the high potency of compound 11 was specific for MK2, an additional 380 human recombinant protein kinases were screened.
To assess the impact of various compounds on MK2 kinase activity, we utilized the ADP‐Glo Assay Kit (Promega) following the manufacturer's instructions. Luminescence measurements were taken using a SpectraMax Paradigm reader. The inhibition percentage was calculated using the following formula: ((specific signalDMSO control − specific signal inhibitor)/(specific signalDMSO control)) × 100%. The IC50 values were determined employing dose–response curve fitting via Prism (Graph Pad). Additionally, Eurofins company (Celle Lévescault) conducted the analysis on compound 11’s inhibitory activity against 380 other human recombinant kinases at various concentrations.

In series [1] the test system is MRC1 and ARG-1 mRNA in RAW264.7 macrophages. Put plainly: RT-PCR of M2 markers in IL-4/IL-13 stimulated RAW264.7 macrophages. It is filed as cell-based, mouse. The conditions noted are these: IL-4/IL-13 20 ng/mL. From the text: (§1) A previous study has reported that MK2 fostered M2‐like polarization of TAMs, driving a protumor and proangiogenic phenotype which in turn accelerates tumor progression.[21] We thus assessed the influence of compound 11 on macrophage polarization and function. Our experiments used human THP‐1 monocyte induced macrophages, mouse RAW264.7 macrophages, and mouse bone marrow‐derived macrophages (BMDM). These cells were induced into M2‐like macrophages using the classic IL‐4 and IL‐13 stimuli.
(§2) FIGURE 5 Inhibition of pro‐tumorigenic M2‐like polarization in macrophages by compound 11. (A–C) RT‐PCR analysis highlights the impact of compound 11 on MRC1 and ARG‐1 mRNA expression in various macrophage cells treated with IL‐4/IL‐13 alone or combined with compound 11 for 12 h or 24 h. […] Data are shown as the mean ± SD. ^* p < 0.05; ^*** p < 0.001 versus the vehicle group, determined by unpaired t test. […]
(§3) Total RNA was extracted from cultured cells using the EZ‐press RNA Purification Kit (EZBioscience). Complementary DNA was synthesized using the ABScript III RT Master Mix for qPCR with gDNA remover (ABclonal Technology) and was quantified with primers listed in Table S5. The relative mRNA expression levels were quantified through qPCR using the SYBR green gene expression assay (ABclonal Technology).

The next series deals with p-Hsp27 in THP-1 cells. Put plainly: Western blot of p-Hsp27 in IL-4/IL-13 treated THP-1 cells. Type of series: cell-based, human. The following applies: 1 h pretreatment, IL-4/IL-13 30 min.
Text: as §1
as §2, with “h. (D) CD206 and Arg‐1 expression in bone marrow‐derived macrophages (BMDM) cells via flow cytometry post 48 h treatment of compound 11 and IL‐4/IL‐13. (E) The treatment effects of compound 11 in THP‐1 cells using western blot analysis.” for “h.”
After the treatment outlined in the figure legends, cells were lysed using 1× sodium dodecyl sulfate (SDS) solution. […] Protein bands were detected using an enhanced chemiluminescence detection reagent (Thermo Fisher Scientific).
(In general: A western blot detects proteins with antibodies after separation by electrophoresis.)

For series [2], the system named is VEGF mRNA in bone marrow-derived macrophages (BMDMs). Nature of the series: RT-PCR of VEGF in IL-4/IL-13 stimulated BMDMs. It is filed as cell-based, mouse. The conditions noted are these: IL-4/IL-13, 12 h.
Text: Following this line of investigation, we employed siRNA for the transient knockdown of MK2 in THP‐1 monocyte‐ differentiated macrophages. […] M2 macrophages play a pivotal role in promoting tumor angiogenesis through the secretion of critical factors like VEGF, which facilitate tumor neovascularization.[17] […] These findings further validate the significance of MK2 in the M2 polarization of macrophages and illustrate how compound 11, by targeting MK2, suppresses the pro‐tumorigenic phenotype of macrophages.
as §3
Figure S3 Inhibition of pro-tumorigenic M2-like polarization in macrophages by compound 11. (A) Illustrates the treatment effects on various macrophage cells using Western blot analysis post IL-4/IL-13 exposure (30 minutes or the specified time period). (B) Examines CD206 expression in RAW264.7 cells via flow cytometry post 48hours treatment of compound 11 and IL-4/IL-13. […] IL-4/IL-13 (20 ng/mL) served as the stimulation control, while untreated cells were the baseline control. […]

Series [3] is described as follows: Cell viability assay (CCK-8), Raw264.7. It is filed as cell-based. The following applies: Raw264.7 cells (mononuclear macrophage), Raw264.7, mouse mononuclear macrophage, read-out: IC50 (μM) mean ± SD, cytotoxicity. The protocol:
(§4) In cellular experiments, cells are seeded into either 6-well or 96-well plates and incubated overnight, proceeding with treatments as described in the figure legends or methods section. The cell inoculation numbers are outlined as follows: For assays measuring cell viability, between 3,000 to 5,000 cells are seeded per well in 96-well plates. For other cellular assays, the seeding density ranges from 5×10^5 to 1×10^6 cells per well in 6-well plates.
(§5) Cells was plated into 96-well plates and incubated overnight prior to introduction of varying concentrations of compounds or control solvent. Following a 72-hour exposure period, cell viability was determined using a Cell Counting Kit-8 assay (Life-iLab, China). Dose-response curves were fitted using a four-parameter method facilitated by SoftMax Pro, which was subsequently used for the computation of IC50 values.

A short description of series [4]: Cell viability assay (CCK-8), HEK293. Type of series: cell-based. The following applies: HEK293 cells (embryo kidney), HEK293, human embryo kidney, read-out: IC50 (μM) mean ± SD, cytotoxicity. On the procedure:
as §4, §5

Where only a bound is given, the exact number is not on record here.

T1 sequence (P22455 22-802): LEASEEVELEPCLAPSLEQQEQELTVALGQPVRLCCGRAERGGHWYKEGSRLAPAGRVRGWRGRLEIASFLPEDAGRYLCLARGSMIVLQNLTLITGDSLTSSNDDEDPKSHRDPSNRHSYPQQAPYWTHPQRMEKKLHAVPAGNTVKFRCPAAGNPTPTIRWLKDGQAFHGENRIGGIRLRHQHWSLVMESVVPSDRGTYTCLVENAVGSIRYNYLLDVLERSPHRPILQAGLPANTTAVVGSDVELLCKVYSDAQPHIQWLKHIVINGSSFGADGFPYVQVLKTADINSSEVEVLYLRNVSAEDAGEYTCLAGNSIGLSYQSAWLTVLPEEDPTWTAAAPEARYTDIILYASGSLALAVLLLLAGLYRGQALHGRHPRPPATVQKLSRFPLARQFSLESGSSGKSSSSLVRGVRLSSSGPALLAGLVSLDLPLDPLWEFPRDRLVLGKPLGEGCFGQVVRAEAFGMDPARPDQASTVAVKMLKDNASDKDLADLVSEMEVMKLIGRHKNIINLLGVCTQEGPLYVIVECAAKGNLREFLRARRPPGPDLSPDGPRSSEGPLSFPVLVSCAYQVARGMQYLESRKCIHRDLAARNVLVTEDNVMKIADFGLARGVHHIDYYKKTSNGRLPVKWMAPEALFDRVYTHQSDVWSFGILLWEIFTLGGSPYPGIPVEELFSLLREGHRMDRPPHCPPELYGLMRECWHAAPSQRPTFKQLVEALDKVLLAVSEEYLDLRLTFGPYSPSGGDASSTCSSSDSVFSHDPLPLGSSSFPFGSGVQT

The term IC50 denotes the concentration needed to halve the response being measured. What is called inhibition is the drop in the measured response relative to a control, in per cent. With `C=CC(=O)Nc1cc(-c2cc(-c3cc4c([nH]3)CCNC4=O)ccn2)ccc1OC(F)(F)F` [compound 11], the IC50 at FGFR4 is > 1000 nM. The inhibition at 0.01 µM at FGFR4 (FGFR4(h), 10 nM, read-out: Inhibition rate) is 0%. Also, the inhibition at 0.1 µM on FGFR4 (FGFR4(h), 100 nM, read-out: Inhibition rate) was -5%. For the same molecule, the inhibition at 1 µM on FGFR4 (FGFR4(h), 1000 nM, read-out: Inhibition rate) is -1%. The “effect on transcriptional level of MRC1 and ARG-1” value in series [1] is given as “significantly suppressed”. Also, the “effect on p-Hsp27” value with p-Hsp27 in THP-1 cells is recorded as “significant inhibition”. In addition, in series [2], the “effect on relative mRNA level of VEGF” value is on record as “inhibited”. The IC50 at 72 h in series [3] is 31.7 ± 2.9 µM; in series [4], 29.9 ± 7.2 µM.
